# Laboratory results: patent publication US11766044B2, “Method for controlling PPO resistant weeds” (BASF SE, priority 2016, dated 2023)
# System: sensitive (w.7) and resistant weeds (w.8, w.9)
# Type: in vivo, Amaranthus tuberculatus
# Conditions: table 3, 1 and 2 g/ha
smiles,measurement,value
CCOC(=O)COc1ncccc1Oc1cc(-n2c(=O)cc(C(F)(F)F)n(C)c2=O)c(F)cc1Cl [compound (I).1],activity on both sensitive and resistant weeds,very good activity
